Like-named read-outs stand apart in the source and are kept apart here.

From US20230150951A1, “2,5- OR 2,6-DISUBSTITUTED HYDROQUINONE DERIVATIVES WITH AT LEAST ONE CARBOXY, SULFO OR AMIDO GROUP USEFUL AS MEDICAMENTS” (OM PHARMA SA, priority 2020, published 2023) come the findings set out here.

Type in all cases: cell-based
In assay [1] the test system is IL-5. In words: Cytokine release after LPS induction on human whole blood: IL-5. As to the method: (§1) Aim of this in vitro method is to assess compounds effects on release of a panel of cytokines from whole blood following lipopolysaccharide (LPS) induced inflammatory reaction. Whole blood was incubated with compounds for 1 h prior to LPS induction. Cytokine levels in blood were measured using a multiplex FACS-based panel.
(§2) IC50 values determined for the tested compounds expressed in microM [μM] and the values for the inhibition of cytokines were listed for each compound.
(§3) Effect on cytokines release after LPS induction was performed on the compounds dissolved in DMSO or H2O to reach 10-fold concentrated stock solutions and dissolved in culture media.
(§4) Test system: Whole blood was removed from a single donor (into lithium heparin coated tubes; BD Vacutainer; 367886) and diluted 1:5 with RPMI 1640 (Thermo Fisher, 61870036). Within 30 minutes of sampling, blood was incubated with compounds for 1 h prior to LPS stimulation (O111:B4—Sigma L4391; 10 ng/ml final concentration). Stimulation continued under standard cell culture conditions (37° C. with 5% CO2) overnight (18 h), after which plates were centrifuged and supernatant removed and frozen at −80° C. until used for analyses.
(§5) Dilution of test compounds: 10×concentrated solutions (concerning to the final assay concentrations) of each test compound were prepared with the appropriate solvent (in DMSO or in water). These 10× compound solutions (10 μl) were then added to 90 μl pre-diluted whole blood (whole blood: RPMI1640, 1:5) resulting in the final assay concentration.
(§6) Test method: Diluted whole blood (80 μl) was pre-incubated with compounds (10 μl) to give final assay concentrations of 100, 30, 10, 3, 1, 0.3 and 0.1×10^−6M. Blood was incubated at 37° C. with 5% CO2 for 1 h. LPS was diluted in cell culture media to a concentration of […]; 10 μl was added to the whole blood to give a final concentration of 10 ng/ml. Plates were incubated at 37° C. for 18 h. Plates were centrifuged at 3,000 RPM for 5 minutes at 4° C. and supernatant removed and frozen at −80° C. until FACS analysis was carried out.
(§7) Cytokine release was measured using a custom multiplex system (ELISA Genie) according to manufacturers instructions. Prepared samples were run on an Attune NxT flow cytometer (Thermo Fisher).
(§8) Quantification of cytokine release inhibition: known concentration standards were run as part of the cytokine panel to allow quantification of each cytokine concentration in each sample. This was carried out using FCAP Array v3.0 software.
(§9) Results: The dose response relationship on cytokine release following LPS induction of inflammatory response in whole blood was assessed for all compounds. IC50 values were determined for each compound for a panel of cytokines (GM-CSF, IFN-gamma, IL-1beta, IL-2, IL-4, IL-5, IL-6, IL-8, IL-9, IL-10, IL-12p40, IL-13, IL-17A, IL-17F, IL-18, IL-21, IL-22, IL-33, TGF-beta, TNF-alpha, TNF-beta).

Assay [2] has as its system IL-9. In words: Cytokine release after LPS induction on human whole blood: IL-9. The procedure: as §1, §2, §3, §4, §5, §6, §7, §8, §9
Assay [3] deals with IFN-gamma. As to the kind of experiment: Cytokine release after LPS induction on human whole blood: IFNγ. As to the method:
as §1, §2, §3, §4, §5, §6, §7, §8, §9

Assay [4] concerns IL-2. As to the kind of experiment: Cytokine release after LPS induction on human whole blood: IL-2. As to the method:
as §1, §2, §3, §4, §5, §6, §7, §8, §9

Assay [5] has as its system IL-6. In words: Cytokine release after LPS induction on human whole blood: IL-6. As to the method:
as §1, §2, §3, §4, §5, §6, §7, §8, §9

Assay [6] concerns the target T1, VEGFR-2 (Homo sapiens, UniProt P35968).
T1 construct: endogenous in cells; host or cells: primary HUVEC
As to the kind of experiment: VEGF-165 induced phosphorylation of VEGF-Receptor on HUVEC. The note with it: HUVEC preincubated 60 min, VEGF165 25 ng/mL 2 min; read-out: VEGFR-Phosphorylation inhibition IC50.

In assay [7] the test system is IL-17A. As to the kind of experiment: Cytokine release after LPS induction on human whole blood: IL-17A. The procedure:
as §1, §2, §3, §4, §5, §6, §7, §8, §9

Assay [8] deals with TNF-beta. In words: Cytokine release after LPS induction on human whole blood: TNFβ. The procedure:
as §1, §2, §3, §4, §5, §6, §7, §8, §9

Assay [9] deals with IL-13. In words: Cytokine release after LPS induction on human whole blood: IL-13. As to the method:
as §1, §2, §3, §4, §5, §6, §7, §8, §9

Where [10] appears, read: Homo sapiens, LPS 10 ng/ml, 18 h, read-out: Whole Blood: IL-5 IC50.
Setting [11] is: human whole blood, inhibition of LPS induced inflammation, read-out: IC50 IL-5.
Setting [12] is: Homo sapiens, LPS 10 ng/ml, 18 h, read-out: Whole Blood: IL-9 IC50.
Where [13] appears, read: human whole blood, inhibition of LPS induced inflammation, read-out: IC50 IL-9.
Where [14] appears, read: Homo sapiens, LPS 10 ng/ml, 18 h, read-out: Whole Blood: IFNγ IC50.
The mark [15] stands for this setting: human whole blood, inhibition of LPS induced inflammation, read-out: IC50 IFNγ.
Setting [16] is: Homo sapiens, LPS 10 ng/ml, 18 h, read-out: Whole Blood: IL-2 IC50.
Setting [17] is: human whole blood, inhibition of LPS induced inflammation, read-out: IC50 IL-2.
[18] abbreviates: Homo sapiens, LPS 10 ng/ml, 18 h, read-out: Whole Blood: IL-6 IC50.
Setting [19] is: human whole blood, inhibition of LPS induced inflammation, read-out: IC50 IL-6.
[20] abbreviates: Homo sapiens, LPS 10 ng/ml, 18 h, read-out: Whole Blood: IL-17A IC50.
Where [21] appears, read: human whole blood, inhibition of LPS induced inflammation, read-out: IC50 IL-17A.
Where [22] appears, read: Homo sapiens, LPS 10 ng/ml, 18 h, read-out: Whole Blood: TNF β IC50.
Where [23] appears, read: human whole blood, inhibition of LPS induced inflammation, read-out: IC50 β.
The mark [24] stands for this setting: Homo sapiens, LPS 10 ng/ml, 18 h, read-out: Whole Blood: IL-13 IC50.
Setting [25] is: human whole blood, inhibition of LPS induced inflammation, read-out: IC50 IL-13.

T1 sequence (P35968 20-1356): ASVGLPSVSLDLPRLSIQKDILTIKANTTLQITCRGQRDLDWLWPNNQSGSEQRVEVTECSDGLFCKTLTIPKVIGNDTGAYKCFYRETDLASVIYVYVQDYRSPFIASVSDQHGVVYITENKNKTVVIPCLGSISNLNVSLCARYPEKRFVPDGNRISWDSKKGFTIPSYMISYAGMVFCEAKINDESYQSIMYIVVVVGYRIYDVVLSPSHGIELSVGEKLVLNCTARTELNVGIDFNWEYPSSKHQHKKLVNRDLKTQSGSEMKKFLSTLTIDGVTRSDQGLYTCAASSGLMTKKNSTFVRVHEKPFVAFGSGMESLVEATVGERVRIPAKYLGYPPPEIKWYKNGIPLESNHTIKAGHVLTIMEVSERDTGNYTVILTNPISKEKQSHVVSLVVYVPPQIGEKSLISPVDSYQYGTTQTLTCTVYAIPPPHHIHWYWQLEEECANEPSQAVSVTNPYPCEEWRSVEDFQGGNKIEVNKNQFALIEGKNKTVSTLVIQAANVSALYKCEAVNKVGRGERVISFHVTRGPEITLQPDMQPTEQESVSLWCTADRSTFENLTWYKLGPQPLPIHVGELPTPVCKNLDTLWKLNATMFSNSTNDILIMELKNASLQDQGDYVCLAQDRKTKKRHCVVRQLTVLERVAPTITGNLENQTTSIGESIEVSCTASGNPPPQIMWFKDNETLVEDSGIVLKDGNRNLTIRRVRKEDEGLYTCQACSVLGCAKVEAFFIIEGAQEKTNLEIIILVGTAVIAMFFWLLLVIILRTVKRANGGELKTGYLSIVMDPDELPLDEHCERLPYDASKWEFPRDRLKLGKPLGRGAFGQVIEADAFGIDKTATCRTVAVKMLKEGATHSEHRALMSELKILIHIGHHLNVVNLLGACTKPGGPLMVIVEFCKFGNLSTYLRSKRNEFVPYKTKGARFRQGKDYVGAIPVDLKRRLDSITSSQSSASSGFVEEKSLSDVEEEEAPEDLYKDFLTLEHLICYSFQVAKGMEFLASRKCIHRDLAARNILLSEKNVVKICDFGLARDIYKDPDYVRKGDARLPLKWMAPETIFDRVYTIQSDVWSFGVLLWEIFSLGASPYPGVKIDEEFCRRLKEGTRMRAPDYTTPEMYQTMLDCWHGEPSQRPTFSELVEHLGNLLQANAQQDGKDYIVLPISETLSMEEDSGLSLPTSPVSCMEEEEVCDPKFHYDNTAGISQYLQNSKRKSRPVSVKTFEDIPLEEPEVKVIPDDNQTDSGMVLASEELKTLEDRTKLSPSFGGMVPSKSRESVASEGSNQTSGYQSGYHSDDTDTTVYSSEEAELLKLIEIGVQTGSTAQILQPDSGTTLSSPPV

As for `CCOC(=O)c1cc(NC(=O)c2cc(O)c(C(=O)OCC)cc2O)cc(NC(=O)c2cc(O)c(C(=O)OCC)cc2O)c1` [Ib-010a-E3, ethyl 3,5-bis(2,5-dihydroxy-4-ethoxycarbonylbenzoylamino)benzoate], the concentration for half-maximal inhibition (IC50) in assay [1] (setting [10]) was above 100 µM; in assay [1] (setting [11]), 100 µM; in [2] (setting [12]) it was 26.8 µM; in assay [2] (setting [13]), 26.8 µM; in assay [3] (setting [14]), 2.79 µM; in [3] (setting [15]), 2.79 µM. Also, the IC50 was determined as 36.2 µM in assay [4] (setting [16]); 36.2 µM in [4] (setting [17]); 0.24 µM in assay [5] (setting [18]); 0.24 µM in [5] (setting [19]); 0.09 µM in [6]; 0.52 µM in assay [7] (setting [20]). In addition, the IC50 in assay [7] (setting [21]) is 0.52 µM; in assay [8] (setting [22]) it was 38.2 µM; in assay [8] (setting [23]), 38.2 µM; in assay [9] (setting [24]), 33 µM; in assay [9] (setting [25]), 33 µM.
Consider `O=C(O)c1cc(NC(=O)c2cc(O)c(C(=O)Nc3ccccc3-c3nnn[nH]3)cc2O)ccc1O` [Ic-001a-Tz/004a, 5-(4-(2-(1H-tetrazol-5-yl)phenylaminocarbonyl)-2,5-dihydroxybenzamido)-2-hydroxy benzoic acid], for which the IC50 was above 100 µM in assay [1] (Homo sapiens, 18 h, read-out: Whole Blood: IL-5 IC50); 100 µM in assay [1] (Homo sapiens, read-out: IC50 IL-5); 8.48 µM in [2] (Homo sapiens, 18 h, read-out: Whole Blood: IL-9 IC50); 8.48 µM in assay [2] (Homo sapiens, read-out: IC50 IL-9); 0.61 µM in assay [3] (Homo sapiens, 18 h, read-out: Whole Blood: IFNγ IC50); 0.61 µM in [3] (Homo sapiens, read-out: IC50 IFNγ). In addition, the concentration for half-maximal inhibition (IC50) in assay [4] (Homo sapiens, 18 h, read-out: Whole Blood: IL-2 IC50) was found to be 4.91 µM; in assay [4] (Homo sapiens, read-out: IC50 IL-2), 4.91 µM; in [5] (Homo sapiens, 18 h, read-out: Whole Blood: IL-6 IC50), 3.04 µM; in assay [5] (Homo sapiens, read-out: IC50 IL-6) it was 3.04 µM; in assay [6], 2.6 µM; in assay [7] (Homo sapiens, 18 h, read-out: Whole Blood: IL-17A IC50), 0.02 µM. In addition, the 50% inhibitory concentration (IC50) is 0.02 µM in assay [7] (Homo sapiens, read-out: IC50 IL-17A); 3.02 µM in [8] (Homo sapiens); 3.02 µM in assay [8] (Homo sapiens, 18 h, read-out: Whole Blood: TNF β IC50); 1.5 µM in assay [9] (Homo sapiens, 18 h, read-out: Whole Blood: IL-13 IC50); 1.5 µM in assay [9] (Homo sapiens, read-out: IC50 IL-13).
On to `O=C(Nc1ccccc1-c1nnn[nH]1)c1cc(O)c(C(=O)Nc2ccccc2-c2nnn[nH]2)cc1O` [Ic-001aTz2, N1,N4-bis(2-(1H-tetrazol-5-yl)phenyl)-2,5-dihydroxyterephthalamide], for which the 50% inhibitory concentration (IC50) is above 100 µM in assay [1] (setting [10]); 9.13 µM in assay [2] (setting [12]); 1.38 µM in assay [3] (setting [14]); 9.45 µM in assay [4] (setting [16]); 0.52 µM in assay [5] (setting [18]); 2.2 µM in assay [6]. Further, the IC50 in assay [7] (setting [20]) stood at 0.31 µM; in assay [8] (setting [22]) it was 0.41 µM; in assay [9] (setting [24]) it was 0.12 µM.
Consider `O=C(O)c1cc(NC(=O)c2cc(O)c(C(=O)Nc3ccc(O)c(C(=O)O)c3)cc2O)ccc1O` [Ic-007a, 5-(4-(3-carboxy-4-hydroxyphenylaminocarbonyl)-2,5-dihydroxybenzamido)-2-hydroxy benzoic acid], for which the 50% inhibitory concentration (IC50) in assay [1] (setting [10]) is above 100 µM; in [1] (setting [11]), 100 µM; in assay [2] (setting [12]), 27.1 µM; in [2] (setting [13]), 27.1 µM; in assay [3] (setting [14]), 1.44 µM; in assay [3] (setting [15]), 1.44 µM. In addition, the IC50 in [4] (setting [16]) is above 100 µM; in [4] (setting [17]), 100 µM; in assay [5] (setting [18]) it was 0.09 µM; in [5] (setting [19]), 0.09 µM; in [6], 0.09 µM; in [7] (setting [20]), 0.04 µM. Also, the IC50 in assay [7] (setting [21]) was 0.04 µM; in assay [8] (setting [22]) it was 6.52 µM; in assay [8] (setting [23]) it was 6.52 µM; in assay [9] (setting [24]) it was 30.1 µM; in assay [9] (setting [25]), 30.1 µM.

As a reminder, the IC50 is the concentration that inhibits the measured activity by half.
